The text below walks through data of patent publication US8546395B2, “6-cycloamino-3-(1H-pyrrolo[2,3-b]pyridin-4-yl)imidazo[1,2-b]pyridazine derivatives, preparation thereof and therapeutic use thereof” (Sanofi, priority 2008, dated 2013).

What is called IC50 is the concentration needed to halve the response being measured. The low end stands for greater potency in that assay, the high end for weaker potency in that assay.

Experiment [1] concerns Mper1-luc Rat-1 (P2C4) fibroblasts. The experiment can be described thus: Circadian cell assay (mPer1-luciferase reporter, period prolongation). It counts as cell-based. Conditions: effective concentration that induced a 1-hour prolongation of the circadian period, interpolated from hyperbolic curve. On the procedure:
Experimental Protocols for Circadian Cell Assay
Mper1-luc Rat-1 (P2C4) fibroblast cultures were prepared by dividing the cultures every 3-4 days (approximately 10-20% of confluence) on 150 cm^2 degassed polystyrene tissue culture flasks (Falcon® #35-5001) and maintained in growth medium [EMEM (Celigro #10-010-CV); 10% foetal bovine serum (FBS; Gibco #16000-044); and 50 I.U./ml of penicillin-streptomycin (Celigro #30-001-CI)] at 37° C. and under 5% CO2.
Cells obtained from Rat-1 fibroblast cultures at 30-50% of confluence as described above were co-transfected with vectors containing the selection marker for resistance to zeocin for a stable transfection and a luciferase reporter gene controlled by the mPer-1 promoter. After 24 to 48 hours, the cultures were divided on 96-well plates and maintained in growth medium supplemented with 50-100 μg/ml of zeocin (Invitrogen® #45-0430) for 10-14 days. The zeocin-resistant stable transfectants were evaluated for the expression of the reporter by adding 100 μM luciferin (Promega® #E1603®) to the growth medium and by assaying the luciferase activity on a TopCount scintillation counter (Packard Model #C384V00). The Rat-1 cell clones expressing both zeocin resistance and lucerifase activity controlled by mPer1 were serum-shock synchronized with 50% horse serum [HS (Gibco® #16050-122)] and the activity of the circadian reporter was evaluated. The P2C4 clone of Mper1-luc Rat-1 fibroblasts was selected to test the compound. Mper1-luc Rat-1 ([…]) fibroblasts at 40-50% of confluence, obtained according to the protocol described above, were plated out onto 96-well opaque tissue culture plates (Perkin Elmer® #6005680). […]
The period analysis was performed either by determining the interval between the relative light emission minima over several days or by Fourier transform. […] The data were analysed by adjusting a hyperbolic curve to the data expressed as change of period (y-axis) as a function of the concentration of the test compound (x-axis) in the XLfit™ software and the CE Delta (t+1 h) was interpolated from this curve.

Another experiment addresses T1, human CK1 delta (Homo sapiens, UniProt P48730).
T1 construct: purchased Invitrogen Corporation PV3665
Nature of the experiment: FRET fluorescence test (Z'Lyte kinase assay Kit), peptide substrate SER/THR 11. Conditions: peptide substrate 2 μM, ATP at 4 times the KM. It counts as biochemical. The source says:
The capacity of the compounds of the invention to inhibit the phosphorylation of casein by casein kinase 1 epsilon and delta may be evaluated using a FRET (“Fluorescence Resonance Energy Transfer) fluorescence test with the aid of the “Z'Lyte™ kinase assay Kit” (reference PV3670; Invitrogen Corporation™) according to the manufacturer's instructions.
The casein kinases 1 used are obtained from Invitrogen Corporation (human CK1 epsilon PV3500 and human CK1 delta PV3665).
A peptide substrate, labelled at both ends with a fluorophor donor group (coumarin) and a fluorophor acceptor group (fluorescein) constituting a FRET system is phosphorylated in the presence of ATP by casein kinase 1 epsilon or delta in the presence of increasing concentrations of compounds of the invention.
The mixture is treated with a site-specific protease that specifically cleaves the peptide substrate to form two fluorescent fragments having a large fluorescence emission ratio.
The fluorescence observed is thus related to the capacity of the products of the invention to inhibit the phosphorylation of the peptide substrate by casein kinase 1 epsilon or casein kinase 1 delta.
The compounds of the invention are dissolved at different concentrations starting with a 10 mM stock solution in DMSO diluted in a buffer containing 50 mM HEPS, pH 7.5, 1 m MEGTA, 0.01% Brij-35, 10 mM MgCl2 for casein kinase 1 epsilon and supplemented with Trizma Base (50 mM), pH 8.0, and NaN3 (0.01% final) for casein kinase 1 delta.
The phosphorylation of the peptide substrate SER/THR 11 obtained from Invitrogen Corporation™ is performed at a final concentration of 2 μM. The ATP concentration is 4 times the KM, this value being 2 μM for casein kinase 1 epsilon and 4 μM for casein kinase 1 delta.
The emitted fluorescence is measured at wavelengths of 445 and 520 nm (excitation at 400 nm).

Each structure is given as a SMILES string.

T1 sequence (P48730 whole entry): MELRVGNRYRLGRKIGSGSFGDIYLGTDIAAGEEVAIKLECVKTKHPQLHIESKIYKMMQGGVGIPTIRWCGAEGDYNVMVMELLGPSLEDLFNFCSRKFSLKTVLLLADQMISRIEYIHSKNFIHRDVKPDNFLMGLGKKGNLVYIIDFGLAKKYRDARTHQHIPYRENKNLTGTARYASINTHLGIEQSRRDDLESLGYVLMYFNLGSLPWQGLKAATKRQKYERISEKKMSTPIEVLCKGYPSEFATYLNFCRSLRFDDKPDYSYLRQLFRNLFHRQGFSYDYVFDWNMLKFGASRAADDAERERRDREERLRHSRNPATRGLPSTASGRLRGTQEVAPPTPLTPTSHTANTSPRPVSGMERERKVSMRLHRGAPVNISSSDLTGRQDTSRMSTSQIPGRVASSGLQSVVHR

With `Fc1ccc(-c2nc3ccc(N4CCC(N5CCCC5)CC4)nn3c2-c2ccnc3[nH]ccc23)cc1` [Compound 36, 2-(4-Fluorophenyl)-6-(4-pyrrolidin-1-ylpiperidin-1-yl)-3-(1H-pyrrolo[2,3-b]pyridin-4-yl)imidazo[1,2-b]pyridazine], the “CE Delta (t + 1 h)” value in experiment [1] lay in the range of 1 to 7 nM. This compound registered an IC50 on human CK1 delta of 19 nM.
